# Assay results as given in patent publication US20240374546A1, “USES AND METHODS FOR PROMOTING INCREASED MITOCHONDRIAL MASS AND FUNCTION” (Brightseed, Inc., priority 2022, published 2024).
# Assays:
# [1] = tested on: palmitate-loaded cells; assay: Fat clearance from palmitate-loaded cells; type: cell-based; conditions: in vitro
# [2] = target: T1, HNF4α (Homo sapiens, UniProt P41235); assay: Cell-based human insulin promoter reporter assay sensitive to HNF4α activity
# T1 sequence (P41235 1-474): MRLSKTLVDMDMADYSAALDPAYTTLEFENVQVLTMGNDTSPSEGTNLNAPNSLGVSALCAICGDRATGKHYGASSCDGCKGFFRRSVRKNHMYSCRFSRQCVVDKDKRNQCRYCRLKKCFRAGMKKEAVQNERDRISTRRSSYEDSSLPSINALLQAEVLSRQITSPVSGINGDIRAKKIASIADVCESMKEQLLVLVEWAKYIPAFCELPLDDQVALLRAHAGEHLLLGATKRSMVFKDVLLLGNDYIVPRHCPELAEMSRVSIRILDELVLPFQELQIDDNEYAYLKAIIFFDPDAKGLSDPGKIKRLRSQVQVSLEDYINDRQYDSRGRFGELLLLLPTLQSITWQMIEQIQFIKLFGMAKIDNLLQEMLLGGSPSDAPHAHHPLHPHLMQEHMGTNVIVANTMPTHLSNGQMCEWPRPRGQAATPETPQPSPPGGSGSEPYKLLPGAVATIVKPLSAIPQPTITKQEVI
# Text: HNF4α is a nuclear receptor transcription factor that controls the expression of downstream genes that are important in multiple aspects of cellular metabolism. The classical view of HNF4α has been that its ligand binding pocket (LBP) is constitutively occupied by a fatty acid that plays a structural rather than regulatory role. However, it has been shown recently that the fatty acids in the HNF4α LBP are exchangeable in the context of full length HNF4α, particularly inside the cell. […] Using the assay in high-throughput screening, it was discovered HNF4α antagonists and more recently agonists. […] Previously, it was shown that intraperitoneal (IP) administration of NCT reversed hepatic steatosis in obese mice fed a high fat diet through a previously unsuspected pathway involving regulation by HNF4α of dihydroceramide synthesis.
# [3] = target: T1, HNF4α; conditions: cited from earlier work
Structure (SMILES),fat clearance from palmitate-loaded cells [1],HNF4α agonist activity [2],HNF4α activator activity of known drugs [3]
"COc1cc(/C=C/C(=O)NCCc2ccc(O)cc2)ccc1O [NFT, N-transferuloyltyramine]",induced fat clearance,strong HNF4α agonists,–
CCN(CCCc1ccccc1)CCCc1ccccc1 [alverine],–,–,weak HNF4α activators
CC(Cc1cccc(C(F)(F)F)c1)NCCOC(=O)c1ccccc1 (stereo not shown) [benfluorex],–,–,weak HNF4α activators
